Tests used:
Format in all cases: physicochemical
[1] = observation of apparent dissolution in water after laser fine pulverization
Experimental: Subsequently, carbamazepine was suspended in water so that the concentration thereof was equal to 2 mg/ml, thereby preparing suspended liquid, and triple higher harmonics of YAG laser ([…], FWHM=4 ns, 20 Hz, irradiation time: 15 minutes) was irradiated to the suspended liquid.

[2] = particle diameter estimated from the absorbance characteristic after fine pulverization; details: for particle diameter after fine pulverization treatment: 355 nm, 310 mJ/cm^2Pulse
Excerpt: The measured value (R) of the absorbance measured by the general-purpose spectrophotometer contains the light absorption (A1) of finely-pulverized carbamazepine itself, the light scattering (S) and the light absorption (A2) of the added surfactant. A1 represents the fine pulverization state of carbamazepine, and it is estimated that the average particle diameter of carbamazepine is smaller as the light absorption is larger. Therefore, in order to estimate the particle diameter of carbamazepine after the treatment, with respect to the absorbance on the ordinate axis in FIG. 8, the increment (S) of the absorbance by the light scattering at each wavelength is approximated to the measured value (S1) of 500 nm at which carbamazepine has no absorption, and the measured value R of the absorbance is corrected to the absorbance A1 by using the operation of A1≈R−A2-S1.
The absorbance characteristic after the laser beam irradiation was measured in the same manner as example 3. In FIG. 9, the solid line represents the absorbance characteristic of the treatment target liquid using the surfactant liquid having the concentration of 1/1000, the one-dot-dashed line represents the absorbance characteristic of the treatment target liquid using the surfactant liquid having the concentration of 1/100, and the two-dot-dashed line represents the absorbance characteristic of the treatment target liquid using the surfactant liquid having the concentration of 1/10. The dashed line represents the absorbance characteristic of the treatment target liquid using no surfactant.

[3] = absorbance characteristic before and after laser beam irradiation (photochemical reaction / degeneration)
Experimental: (§1) The absorbance characteristic of the solution was measured by using a general-purpose spectrophotometer (HITACHI U-3500). […] The optical path length was set to 10 mm for the measurement.

[4] = variation of the absorbance characteristic of the finely-pulverized solution with time lapse after laser beam irradiation (dispersion stability); details: finely-pulverized solution in water (355 nm, 380 mJ/cm^2Pulse, 15 minutes), after six days
Experimental: as §1
The absorbance characteristic indicated by the dashed line is the one before laser beam irradiation.

[5] = purity after fine pulverization treatment by HPLC, laser beam wavelength dependence; details: one hour
Experimental: In this example, fine pulverization of clobetasone butyrate as adrenal cortex hormone of hardly-soluble medicament was attempted. […] A stirring magnet stick for stirring the liquid was put in the square cell so that a laser beam was uniformly irradiated to the suspended liquid. The temperature of the suspended liquid was set to room temperature of 25° C. at all times except for a temperature dependence test.
In this example, a continuously wavelength-variable OPO parametric oscillator was used as a light source for fine pulverization because the wavelength dependence of the fine pulverization and photochemical reaction by laser beam irradiation was required to be investigated. The pulse width of the irradiation laser beam was set to FWHM 4 ns, and the repetition frequency was set to 10 Hz.
Subsequently, the irradiation wavelength of the laser beam was varied and the test was carried out.

| dissolution when suspended in pure water ([1]; precipitate after laser treatment (355 nm, 430 mJ/cm^2Pulse, 15 minutes)) | dissolution when suspended in pure water ([1]; sample before the treatment) | particle diameter after fine pulverization treatment ([2]; 15 minutes, 1 mg/ml in water) | photochemical reaction on laser beam irradiation ([3]; 1 mg/ml suspended in water, 355 nm, 310 mJ/cm^2Pulse, 15 minutes, with and without surfactant Tween20) | photochemical reaction on laser beam irradiation ([3]; 2 mg/ml suspended in water, 355 nm, 430 mJ/cm^2Pulse, 15 minutes) | Structure (SMILES) | appearance of the solution after the laser beam irradiation ([1]; water, 355 nm, 380 mJ/cm^2Pulse) | degree of fine pulverization of the suspended liquid ([2]; 0.5 mg/ml in water, YAG pulse laser 1064 nm, 1700 mJ/cm^2 per pulse, one hour) | particle diameter after fine pulverization treatment ([2]; with added surfactant Tween20) | degeneration after the treatment ([3]; 355 nm treatment, UV absorption curves just after the treatment and after six days) | photochemical reaction on laser beam irradiation ([3]; Kr-F laser 248 nm, otherwise as example 1) | precipitation caused by the aggregation of fine particles [4] | purity after fine pulverization treatment (HPLC) ([5]; laser beam wavelength 500 nm or less) | purity after fine pulverization treatment (HPLC) ([5]; laser beam wavelength 500 to 800 nm) |
| --- | --- | --- | --- | --- | --- | --- | --- | --- | --- | --- | --- | --- | --- |
| instantaneously dissolved | hardly dissolved | sub-micron or less | no photochemical reaction is induced | little photochemical reaction occurred | NC(=O)N1c2ccccc2C=Cc2ccccc21 [carbamazepine] | – | – | – | – | – | – | – | – |
| – | – | – | – | – | CCCC(=O)O[C@]1(C(=O)CCl)[C@H](C)C[C@@H]2[C@@H]3CCC4=CC(=O)C=C[C@]4(C)[C@]3(F)C(=O)C[C@@]21C [clobetasone butyrate] | transparent | sub-micrometer order | sub-micron or less | no degeneration occurred | some photochemical reaction occurs | rarely observed | degradation is also small | great degradation of the purity |

Reference: patent US20060257489A1, “Fine particles, method and device for preparation thereof, and agent for parenteral injection and method for production thereof” (priority 2003, published 2006)
